Measured values published in ChEMBL document CHEMBL3243921, “2-Pyrrolidinylideneureas, a new class of central nervous system agents” (J Med Chem, 1978).
The source made the active and inactive calls.

How the values were obtained:
Mus musculus [1] = experiment: Anticonvulsant activity in po dosed mouse assessed as blockade of supramaximal electroshock-induced […] seizure; assay type: functional
Mus musculus [2] = experiment: Muscle relaxant activity in po dosed mouse assessed as increase in strychnine-induced persistant convulsive threshold; assay type: functional
Mus musculus [3] = experiment: Sedative-hypnotic activity in po dosed mouse assessed as increase in pentylenetetrazol-induced persistent-convulsive threshold; assay type: functional, organism-based
Mus musculus [4] = experiment: Muscle relaxant activity in po dosed mouse assessed as blockade of pentylenetetrazol-induced tonic extensor seizure; assay type: functional
Mus musculus [5] = experiment: Hypnotic activity in po dosed mouse assessed as increase in pentylenetetrazol-induced persistent-convulsive threshold; assay type: functional, organism-based
Rattus norvegicus = experiment: Antianxiety activity in ip dosed rat assessed as effect on increase in punished responses administered qd for 5 days measured every day for 5 days; assay type: functional

SMILES	Activity (Mus musculus [1])	Activity (Mus musculus [2])	Activity (Mus musculus [3])	Activity (Mus musculus [4])	Activity (Mus musculus [5])	Activity (Rattus norvegicus)
CN1CCC/C1=N\C(=O)Nc1cc(C(F)(F)F)cc(C(F)(F)F)c1	Active	–	–	–	–	–
Cc1cccc(C)c1NC(=O)/N=C1\CCCCCN1C	inactive	inactive	inactive	inactive	inactive	inactive
CN1CCC/C1=N\C(=O)Nc1ccccc1C(F)(F)F	Active	Active	Active	Active	Active	Active
CN1CC(C)(C)C/C1=N\C(=O)Nc1cccc(Cl)c1	inactive	inactive	inactive	inactive	inactive	inactive
O=C(/N=C1\CCCN1Cc1ccccc1)Nc1c(Cl)cccc1Cl	inactive	inactive	inactive	inactive	inactive	inactive
CN1CCC/C1=N\C(=O)Nc1ccc(S(C)(=O)=O)cc1	inactive	inactive	–	inactive	–	inactive
O=C(/N=C1\CCCN1)Nc1ccccc1	–	Active	–	Active	–	–
CSc1ccc(NC(=O)/N=C2\CCCN2C)cc1	inactive	inactive	–	inactive	–	inactive
Cc1cc(N(C)C)cc(C)c1NC(=O)/N=C1\CCCN1C	–	Active	–	Active	–	–
Cc1cccc(C)c1NC(=O)/N=C1\CC(c2ccccc2)CN1C (stereo unspecified)	inactive	inactive	inactive	inactive	inactive	inactive
O=C(/N=C1\CCCN1)NC12CC3CC(CC(C3)C1)C2	–	–	–	–	–	inactive
Cc1cccc(C)c1NC(=O)/N=C1\C(C)C(c2ccccc2)CN1C (stereo unspecified)	inactive	inactive	inactive	inactive	inactive	inactive
Cc1cccc(C)c1NC(=O)/N=C1\CCCN1Cc1ccccc1	inactive	inactive	inactive	inactive	inactive	inactive
CC1/C(=N\C(=O)Nc2c(Cl)cccc2Cl)N(C)CC1c1ccccc1 (stereo unspecified)	inactive	inactive	inactive	inactive	inactive	inactive
CN1CC(c2ccccc2)C/C1=N\C(=O)Nc1cccc(Cl)c1 (stereo unspecified)	inactive	inactive	inactive	inactive	inactive	inactive
COc1ccc(NC(=O)/N=C2\CCCN2C)cc1	inactive	inactive	–	inactive	–	inactive
CN1CCC/C1=N\C(=O)Nc1ccc(OCc2ccccc2)cc1	inactive	inactive	–	inactive	–	inactive
O=C1NC(=O)C(c2ccccc2)(c2ccccc2)N1	Active	–	–	–	–	–
Cc1ccccc1NC(=O)/N=C1\CCCN1C	Active	Active	Active	Active	Active	Active
CCCCN1CCC/C1=N\C(=O)Nc1c(C)cccc1C	inactive	inactive	inactive	inactive	inactive	inactive
CN1CCC/C1=N\C(=O)Nc1cccc([N+](=O)[O-])c1	–	–	–	–	–	inactive
Cc1ccc(NC(=O)/N=C2\CCCN2C)cc1	inactive	inactive	–	inactive	–	inactive
CN1CCC/C1=N\C(=O)Nc1ccc(C(F)(F)F)cc1	–	–	–	–	–	inactive
CN1CCC/C1=N\C(=O)Nc1ccc(O)cc1	inactive	inactive	–	inactive	–	inactive
CN1CCC/C1=N\C(=S)Nc1ccccc1	inactive	inactive	inactive	inactive	inactive	inactive
CCOc1ccccc1NC(=O)/N=C1\CCCN1C	Active	Active	Active	Active	Active	Active

SMILES	Activity (Mus musculus [1])	Activity (Mus musculus [2])	Activity (Mus musculus [3])	Activity (Mus musculus [4])	Activity (Mus musculus [5])	Activity (Rattus norvegicus)
O=C(/N=C1\CCCN1)NC1CCCCC1	–	–	–	–	–	inactive
CN1CCC/C1=N\C(=O)Nc1ccc(Cl)cc1	inactive	inactive	–	inactive	–	inactive
CN1CC(C)(C)C/C1=N\C(=O)Nc1ccccc1	inactive	inactive	inactive	inactive	inactive	inactive
CCOC(=O)c1ccc(NC(=O)/N=C2\CCCN2C)cc1	inactive	inactive	–	inactive	–	inactive
Cc1cccc(C)c1NC(=O)/N=C1\CCCCCN1	inactive	inactive	inactive	inactive	inactive	inactive
Cc1cccc(C)c1NC(=O)/N=C1\CCC(C)N1C (stereo unspecified)	inactive	inactive	inactive	inactive	inactive	inactive
CN1CCC/C1=N\C(=O)Nc1ccc(C(C)(C)C)cc1	inactive	inactive	–	inactive	–	inactive
CN1CC(c2ccccc2)C/C1=N\C(=O)Nc1ccccc1 (stereo unspecified)	inactive	inactive	inactive	inactive	inactive	inactive
CN1CCC/C1=N\C(=S)Nc1ccc([N+](=O)[O-])cc1	inactive	inactive	inactive	inactive	inactive	inactive
CN1CCC/C1=N\C(=O)Nc1ccccc1Cl	Active	Active	Active	Active	Active	Active
CN1CCCCC/C1=N\C(=O)Nc1c(Cl)cccc1Cl	inactive	inactive	inactive	inactive	inactive	inactive
Cc1cccc(C)c1NC(=O)/N=C1\CC(C)(C)CN1C	inactive	inactive	inactive	inactive	inactive	inactive
CN1CCC/C1=N\C(=O)Nc1ccc(Br)cc1	inactive	inactive	–	inactive	–	inactive
CCOc1ccc(NC(=O)/N=C2\CCCN2C)cc1	inactive	inactive	–	inactive	–	inactive
O=C(/N=C1\CCCN1Cc1ccccc1)Nc1cccc(Cl)c1	inactive	inactive	inactive	inactive	inactive	inactive
CC(C)c1ccccc1NC(=O)/N=C1\CCCN1C	Active	Active	Active	Active	Active	Active
CC1/C(=N\C(=O)Nc2cccc(Cl)c2)N(C)CC1c1ccccc1 (stereo unspecified)	inactive	inactive	inactive	inactive	inactive	inactive
CN1CC(C)(C)C/C1=N\C(=O)Nc1c(Cl)cccc1Cl	inactive	inactive	inactive	inactive	inactive	inactive
Cc1cc(C)c(NC(=O)/N=C2\CCCN2C)c(C)c1	–	Active	–	Active	–	–
Cc1ccc(Cl)c(C)c1NC(=O)/N=C1\CCCN1C	–	Active	–	Active	–	–
CN1CCC/C1=N\C(=O)Nc1ccc(F)cc1	inactive	inactive	–	inactive	–	inactive
CN1CCC/C1=N\C(=O)Nc1c(Br)cc(Br)cc1Br	–	Active	–	Active	–	–
CCCCCCCCCCCCCCCCCCNC(=O)/N=C1\CCCN1	–	–	–	–	–	inactive
CN1CCC/C1=N\C(=O)Nc1ccc(N(C)C)cc1	inactive	inactive	–	inactive	–	inactive
CN1CCC/C1=N\C(=O)Nc1c(Cl)cc(Cl)cc1Cl	–	Active	–	Active	–	–
